# According to patent publication US20240336574A1 (LATIGO BIOTHERAPEUTICS, INC., priority 2021, published 2024):
# Experiments:
# [1] = target: T1, recombinant human NaV1.8 stably transfected HEK cells (Homo sapiens, UniProt Q9Y5Y9); experiment: Compound profiling on NaV1.8, human NaV1.8 cell line, SyncroPatch384PE automated patch clamp assay (Example 115, third set of compounds, Table 27); type: cell-based; conditions: human NaV1.8 HEK cells, Table 27 (third set of compounds)
# T1 construct: expressed in transfected cells; host or cells: HEK cells, stably transfected
# Protocol: Compound Profiling on NaV1.8 Human NaV1.8 Cell Line SyncroPatch384PE Assay
# Compounds were tested on recombinant human NaV1.8 stably transfected HEK cells using the SyncroPatch384PE system, an automated patch clamp device. Cells were cultured at 37° C./5% CO2 in DMEM medium supplemented with GlutaMAX I, NEAA 1%, FBS 10% and seeded in T175 flasks. Cells were cultured at 30° C. one day prior to recording sodium currents. On the day of the recordings, cells were detached with 0.05% Trypsin-EDTA, resuspended in serum free DMEM medium and placed into the SyncroPatch384PE 6° C. pre-cooled cell hotel and shaken at 200 rpm. Intracellular solution (IC) contained, in mM: 10, CsCl; 110, CsF; 20, EGTA; 10, HEPES. Extracellular solution (EC) contained, in mM: 140, NaCl; 4, KCl; 5, Glucose; 10, HEPES; 2, CaCl2; 1, MgCl2. Washing solution contained, in mM: 40, NMDG; 100, NaCl; 4, KCl; 10, Glucose; 10, HEPES; 5, CaCl2; 1, MgCl2.
# Compounds were tested in quadruplicates in 0.1% DMSO and 0.030% Pluronic Acid. Compounds were diluted 1:3.33 in EC solution to create a 10-point concentration response curve, spanning a final concentration range from 10-0.0002 μM in the assay plate. Compounds with low nM potency were retested using a lower concentration range (1-0.00002 μM). Each plate contained tetracaine and another tool compound as positive controls. Up to 7 compounds were tested on one plate. 150 μM tetracaine and 0.1% DMSO were used as high and low controls, respectively.
# Whole cell patch clamp recordings were conducted according to Nanion's standard procedure for SyncroPatch384PE®. Cells were held at a holding potential of −120 mV. A depolarization step to 10 mV for 30 ms was applied (P1 measurement), followed by a hyperpolarization step to −100 mV for 100 ms. An inactivation step at −40 mV for 10 sec was applied before stepping to −100 mV for 20 ms, followed by a step to 10 mV for 30 ms (P2 measurement) and then back to −100 mV for 30 ms. Sweep interval was 15 sec with a sampling rate of 10 kHz. Following establishment of the whole-cell configuration in EC, two washing steps with reference buffer were performed to stabilize the baseline. Compounds were then applied by the SynchroPatch into each well and the current was recorded for five minutes in EC, followed by application of tetracaine to achieve full block at the end of the experiment. The potency of the compounds was assessed on two read-outs, resting state block (P1 measurement) or inactivated state block (P2 measurement) to obtain IC50 values. Values were normalized to high (tetracaine) and low (DMSO) controls.
# [2] = target: T1, recombinant human NaV1.8 stably transfected HEK cells; experiment: Compound profiling on NaV1.8, human NaV1.8 cell line, SyncroPatch384PE automated patch clamp assay (Example 102, first set of compounds, Table 16); type: cell-based; conditions: human NaV1.8 HEK cells, Table 16 (first set of compounds)
# Summary of the method: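 IC50s come from two read-outs: resting-state block (P1, 10 mV step from −120 mV) and inactivated-state block (P2, after 10 s at −40 mV), scaled between DMSO and 250 μM tetracaine. Compounds (20–0.001 μM final, 1:3 steps) were applied for 5 min, 15 s sweeps. Cells kept at 30 °C the day before.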
# [3] = inactivated state block (P2 measurement), read-out: P2 IC50
# [4] = resting state block (P1 measurement), read-out: P1 IC50
# [5] = inactivated state block (P2 measurement), read-out: P2IC50
# [6] = resting state block (P1 measurement), read-out: P1IC50
# T1 sequence (Q9Y5Y9 whole entry): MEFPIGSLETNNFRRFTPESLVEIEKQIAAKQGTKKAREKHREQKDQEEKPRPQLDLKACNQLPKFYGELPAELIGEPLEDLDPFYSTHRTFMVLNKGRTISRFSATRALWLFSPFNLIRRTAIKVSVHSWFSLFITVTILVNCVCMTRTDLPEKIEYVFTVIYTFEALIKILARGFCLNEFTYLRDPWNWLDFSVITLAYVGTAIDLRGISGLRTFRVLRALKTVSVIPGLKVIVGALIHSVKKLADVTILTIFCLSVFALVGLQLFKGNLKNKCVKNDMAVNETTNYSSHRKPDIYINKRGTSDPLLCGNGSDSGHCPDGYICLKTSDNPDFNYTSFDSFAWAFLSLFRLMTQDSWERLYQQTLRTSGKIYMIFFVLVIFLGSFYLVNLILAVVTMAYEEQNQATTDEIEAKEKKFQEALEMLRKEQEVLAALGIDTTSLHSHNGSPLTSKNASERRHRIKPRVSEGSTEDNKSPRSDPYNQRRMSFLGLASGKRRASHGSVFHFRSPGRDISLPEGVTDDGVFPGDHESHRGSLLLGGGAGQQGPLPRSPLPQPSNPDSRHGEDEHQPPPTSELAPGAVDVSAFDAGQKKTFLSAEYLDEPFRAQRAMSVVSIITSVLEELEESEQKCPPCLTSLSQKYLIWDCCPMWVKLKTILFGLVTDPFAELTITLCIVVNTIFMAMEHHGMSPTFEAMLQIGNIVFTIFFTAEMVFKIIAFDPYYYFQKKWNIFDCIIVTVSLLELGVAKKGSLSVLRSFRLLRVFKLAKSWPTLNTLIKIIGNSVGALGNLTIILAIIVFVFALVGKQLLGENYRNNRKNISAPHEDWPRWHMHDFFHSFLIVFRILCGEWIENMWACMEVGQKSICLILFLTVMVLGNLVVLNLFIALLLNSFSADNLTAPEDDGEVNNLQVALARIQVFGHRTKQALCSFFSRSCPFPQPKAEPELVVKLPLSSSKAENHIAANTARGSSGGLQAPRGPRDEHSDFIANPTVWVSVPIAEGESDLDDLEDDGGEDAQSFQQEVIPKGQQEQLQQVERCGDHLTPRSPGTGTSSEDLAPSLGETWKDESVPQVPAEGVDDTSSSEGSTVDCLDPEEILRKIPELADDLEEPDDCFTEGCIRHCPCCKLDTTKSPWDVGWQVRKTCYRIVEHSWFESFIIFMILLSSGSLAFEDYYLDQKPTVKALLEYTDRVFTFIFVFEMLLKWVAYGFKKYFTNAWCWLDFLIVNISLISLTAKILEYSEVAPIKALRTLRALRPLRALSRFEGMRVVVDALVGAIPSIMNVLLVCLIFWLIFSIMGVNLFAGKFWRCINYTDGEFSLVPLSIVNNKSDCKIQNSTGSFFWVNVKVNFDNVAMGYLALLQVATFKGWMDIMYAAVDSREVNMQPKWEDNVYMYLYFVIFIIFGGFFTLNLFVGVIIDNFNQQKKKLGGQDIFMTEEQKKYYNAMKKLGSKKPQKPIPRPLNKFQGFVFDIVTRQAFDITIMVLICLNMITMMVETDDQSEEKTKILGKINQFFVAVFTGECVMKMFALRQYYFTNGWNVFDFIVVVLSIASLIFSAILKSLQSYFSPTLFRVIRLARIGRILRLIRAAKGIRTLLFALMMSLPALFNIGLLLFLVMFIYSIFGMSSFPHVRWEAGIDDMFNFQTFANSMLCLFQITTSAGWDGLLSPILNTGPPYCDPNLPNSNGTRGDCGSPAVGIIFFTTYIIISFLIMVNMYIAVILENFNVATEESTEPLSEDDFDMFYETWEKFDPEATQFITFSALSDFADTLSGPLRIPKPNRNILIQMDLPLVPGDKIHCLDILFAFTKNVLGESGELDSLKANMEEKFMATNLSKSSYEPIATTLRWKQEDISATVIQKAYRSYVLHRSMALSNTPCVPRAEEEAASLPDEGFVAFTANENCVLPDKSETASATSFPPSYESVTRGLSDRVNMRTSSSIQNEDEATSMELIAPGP
Compound,"IC50 [1, 3] [nM]","IC50 [1, 4] [nM]","IC50 [2, 5] [nM]","IC50 [2, 6] [nM]"
Cc1cc(F)ccc1Oc1nnc(C(F)(F)F)cc1C(=O)Nc1cccc(CS(C)(=O)=O)c1 [Compound 10],> 5000,> 5000,,
COc1cc(F)ccc1Oc1nnc(C(F)(F)F)cc1C(=O)Nc1cccc(S(C)(=O)=O)n1 [Compound 15],1000 to 5000,> 5000,,
COc1cc(F)ccc1Oc1nnc(C(F)(F)F)cc1C(=O)Nc1cncc(S(C)(=O)=O)c1 [Compound 16],1000 to 5000,1000 to 5000,,
COc1cc(F)ccc1Oc1nnc(C(F)(F)F)cc1C(=O)Nc1cccc(NS(C)(=O)=O)c1 [Compound 18],501 to 1000,1000 to 5000,,
COc1cc(F)ccc1Oc1nnc(C(F)(F)F)cc1C(=O)Nc1cccc(-n2cnnc2)c1 [Compound 22],1000 to 5000,1000 to 5000,,
COc1cc(F)ccc1Oc1nnc(C(F)(F)F)cc1C(=O)Nc1cc(S(C)(=O)=O)ccc1F [Compound 23],201 to 500,201 to 500,,
COc1cc(F)ccc1Oc1nnc(C(F)(F)F)cc1C(=O)Nc1cccc(C(N)=O)c1 [Compound 26],≤ 200,≤ 200,,
COc1cc(F)ccc1Oc1nnc(C(F)(F)F)cc1C(=O)Nc1ccc(C(N)=O)cc1 [Compound 27],≤ 200,≤ 200,,
CS(=O)(=O)c1cccc(NC(=O)c2cc(C(F)(F)F)nnc2Oc2ccc(OC(F)F)cc2)c1 [Compound 34],≤ 200,≤ 200,,
Cc1cc(OC(F)(F)F)ccc1Oc1nnc(C(F)(F)F)cc1C(=O)Nc1cccc(S(C)(=O)=O)c1 [Compound 35],≤ 200,≤ 200,,
Cc1cc(OC(F)(F)F)ccc1Oc1nnc(C(F)(F)F)cc1C(=O)Nc1ccc(C(N)=O)cc1 [Compound 37],≤ 200,≤ 200,,
COc1cc(F)ccc1Oc1nnc(C(F)(F)F)cc1C(=O)Nc1cccc(-c2nncn2C)c1 [Compound 38],1000 to 5000,1000 to 5000,,
"COc1cc(C#N)ccc1Oc1ncc(C2=CCOCC2)cc1C(=O)Nc1cccc(S(C)(=N)=O)c1 (stereo not drawn) [Compound 1726, 2-(4-cyano-2-methoxy-phenoxy)-5-(3,6-dihydro-2H-pyran-4-yl)-N-[3-(methylsulfonimidoyl)phenyl]pyridine-3-carboxamide]",,,200 to 500,200 to 500
"Cc1cc(F)ccc1Oc1ncc(Br)c(C)c1C(=O)Nc1cccc([S@@](C)(=N)=O)c1 [Compound 1728, 5-bromo-2-(4-fluoro-2-methylphenoxy)-N-{3-[(S)-imino(methyl)oxo-λ^6-sulfanyl]phenyl}-4-methylpyridine-3-carboxamide]",,,≤ 20,≤ 20
"COc1c(Oc2nc(C(F)(F)F)ccc2C(=O)Nc2cccc(S(C)(=N)=O)c2)ccc(F)c1F (stereo not drawn) [Compound 1729, 2-(3,4-difluoro-2-methoxy-phenoxy)-N-[3-(methylsulfonimidoyl)phenyl]-6-(trifluoromethyl)pyridine-3-carboxamide]",,,≤ 20,≤ 20
"Cc1cc(F)ccc1Oc1ncc(Br)c(C)c1C(=O)Nc1cccc([S@](C)(=N)=O)c1 [Compound 1731, (R)-5-bromo-2-(4-fluoro-2-methylphenoxy)-4-methyl-N-(3-(S-methylsulfonimidoyl)phenyl)nicotinamide]",,,≤ 20,≤ 20
"COc1ccc(-c2nnc(Oc3ccc(C#N)cc3OC)c(C(=O)Nc3cccc([S@](C)(=N)=O)c3)c2C)cn1 [Compound 1733, (R)-3-(4-cyano-2-methoxyphenoxy)-6-(6-methoxypyridin-3-yl)-5-methyl-N-(3-(S-methylsulfonimidoyl)phenyl)pyridazine-4-carboxamide]",,,40 to 200,200 to 500
"COc1cc(C#N)ccc1Oc1nc(C(F)(F)F)nc(C)c1C(=O)Nc1cccc(S(C)(=N)=O)c1 (stereo not drawn) [Compound 1743, 4-(4-cyano-2-methoxy-phenoxy)-6-methyl-N-[3-(methylsulfonimidoyl)phenyl]-2-(trifluoromethyl)pyrimidine-5-carboxamide]",,,≤ 20,≤ 20

# Results, then the compound that gave them:
"IC50 [1, 3] [nM]","IC50 [1, 4] [nM]","IC50 [2, 5] [nM]","IC50 [2, 6] [nM]",Compound
> 5000,> 5000,,,Cc1cc(F)ccc1Oc1nnc(C(F)(F)F)cc1C(=O)Nc1cccc(S(C)(=O)=O)n1 [Compound 4]
1000 to 5000,1000 to 5000,,,Cc1cc(F)ccc1Oc1nnc(C(F)(F)F)cc1C(=O)Nc1cccc(NS(C)(=O)=O)c1 [Compound 8]
1000 to 5000,> 5000,,,Cc1cc(F)ccc1Oc1nnc(C(F)(F)F)cc1C(=O)Nc1cccc(-n2cncn2)c1 [Compound 9]
1000 to 5000,1000 to 5000,,,Cc1cc(F)ccc1Oc1nnc(C(F)(F)F)cc1C(=O)Nc1ccn2cnnc2c1 [Compound 11]
1000 to 5000,1000 to 5000,,,Cc1cc(F)ccc1Oc1nnc(C(F)(F)F)cc1C(=O)Nc1cccc(-n2cnnc2)c1 [Compound 12]
201 to 500,501 to 1000,,,COc1cc(F)ccc1Oc1nnc(C(F)(F)F)cc1C(=O)Nc1cccc(S(=O)(=O)C(C)C)c1 [Compound 17]
1000 to 5000,1000 to 5000,,,COc1cc(F)ccc1Oc1nnc(C(F)(F)F)cc1C(=O)Nc1cccc(CS(C)(=O)=O)c1 [Compound 19]
501 to 1000,501 to 1000,,,COc1cc(F)ccc1Oc1nnc(C(F)(F)F)cc1C(=O)Nc1ccn2cnnc2c1 [Compound 21]
≤ 200,≤ 200,,,COc1cc(F)ccc1Oc1nnc(C(F)(F)F)cc1C(=O)Nc1cccc(S(=O)(=O)C2CC2)c1 [Compound 25]
> 5000,> 5000,,,COc1cc(NC(=O)c2cc(C(F)(F)F)nnc2Oc2ccc(F)cc2C)c(C)cn1 [Compound 29]
> 5000,> 5000,,,CSc1ccc(NC(=O)c2cc(C(F)(F)F)nnc2Oc2ccc(F)cc2C)cc1 [Compound 32]
≤ 200,≤ 200,,,COc1cc(NC(=O)c2cc(C(F)(F)F)nnc2Oc2ccc(F)cc2OC)ccn1 [Compound 33]
501 to 1000,201 to 500,,,COc1cc(F)ccc1Oc1nnc(C(F)(F)F)cc1C(=O)Nc1cccc(-n2ncnc2C)c1 [Compound 36]
,,200 to 500,200 to 500,"COc1cc(C#N)ccc1Oc1ncc(C2CCOCC2)cc1C(=O)Nc1cccc(S(C)(=N)=O)c1 (stereo not drawn) [Compound 1727, 2-(4-cyano-2-methoxy-phenoxy)-N-[3-(methylsulfonimidoyl)phenyl]-5-tetrahydropyran-4-yl-pyridine-3-carboxamide]"
,,≤ 20,≤ 20,"COc1cc(C#N)ccc1Oc1nc(C(F)(F)F)cc(C)c1C(=O)Nc1cccc([S@](C)(=N)=O)c1 [Compound 1730, (R)-2-(4-cyano-2-methoxyphenoxy)-4-methyl-N-(3-(S-methylsulfonimidoyl)phenyl)-6-(trifluoromethyl)nicotinamide]"
,,200 to 500,200 to 500,"Cc1cc(F)ccc1Oc1nnc(C(F)(F)F)c(N2CCCCC2)c1C(=O)Nc1cccc([S@@](C)(=N)=O)c1 [Compound 1732, (S)-3-(4-fluoro-2-methylphenoxy)-N-(3-(S-methylsulfonimidoyl)phenyl)-5-(piperidin-1-yl)-6-(trifluoromethyl)pyridazine-4-carboxamide]"
,,20 to 40,40 to 200,"COc1cc(C#N)ccc1Oc1nc(C(F)(F)F)nc(C)c1C(=O)Nc1cccc(C(N)=O)c1 [Compound 1742, N-(3-carbamoylphenyl)-4-(4-cyano-2-methoxy-phenoxy)-6-methyl-2-(trifluoromethyl)pyrimidine-5-carboxamide]"
,,40 to 200,40 to 200,"COc1cc(C#N)ccc1Oc1nc(C(F)(F)F)nc(C)c1C(=O)Nc1ccc(C(N)=O)cc1 [Compound 1744, N-(4-carbamoylphenyl)-4-(4-cyano-2-methoxy-phenoxy)-6-methyl-2-(trifluoromethyl)pyrimidine-5-carboxamide]"
